Reference: ChEMBL document CHEMBL1147193, “New 5-substituted thiazolo[3,2-b][1,2,4]triazol-6-ones: synthesis and anticancer evaluation” (2007)

Key:
Assay type in all cases: functional
ACHN = test: Growth inhibition of human ACHN cells after 48 hrs by SRB protein assay
SK-MEL-28 = test: Growth inhibition of human SK-MEL-28 cells after 48 hrs by SRB protein assay; details: SK-MEL-28, 48 h
HCC 2998 = test: Growth inhibition of human HCC2998 cells after 48 hrs by SRB protein assay; details: HCC 2998, 48 h
M14 = test: Growth inhibition of human M14 cells after 48 hrs by SRB protein assay; details: M14, 48 h
NCI-H522 = test: Growth inhibition of human NCI-H522 cells after 48 hrs by SRB protein assay; details: NCI-H522, 48 h
NCI-H460 [1] = test: Growth inhibition of human NCI-H460 cells after 48 hrs by SRB protein assay; details: NCI-H460, 48 h
UACC-62 = test: Growth inhibition of human UACC62 cells after 48 hrs by SRB protein assay; details: UACC-62, 48 h
HCT-116 = test: Growth inhibition of human HCT116 cells after 48 hrs by SRB protein assay; details: HCT-116, 48 h
HCT-15 = test: Growth inhibition of human HCT15 cells after 48 hrs by SRB protein assay; details: HCT-15, 48 h
NCI-H226 = test: Growth inhibition of human NCI-H226 cells after 48 hrs by SRB protein assay; details: NCI-H226, 48 h
SK-MEL-5 = test: Growth inhibition of human SK-MEL-5 cells after 48 hrs by SRB protein assay; details: SK-MEL-5, 48 h
LOX IMVI = test: Growth inhibition of human LOX IMVI cells after 48 hrs by SRB protein assay
786-0 = test: Growth inhibition of human 786-0 cells after 48 hrs by SRB protein assay; details: 786-0, 48 h
IGROV-1 = test: Growth inhibition of human IGROV1 cells after 48 hrs by SRB protein assay; details: IGROV-1, 48 h
RPMI-8226 = test: Growth inhibition of human RPMI8226 cells after 48 hrs by SRB protein assay; details: RPMI-8226, 48 h
OVCAR-5 = test: Growth inhibition of human OVCAR5 cells after 48 hrs by SRB protein assay; details: OVCAR-5, 48 h
MOLT-4 = test: Growth inhibition of human MOLT4 cells after 48 hrs by SRB protein assay; details: MOLT-4, 48 h
NCI/ADR-RES = test: Growth inhibition of human NCI/ADR-RES cells after 48 hrs by SRB protein assay
UACC-257 = test: Growth inhibition of human UACC257 cells after 48 hrs by SRB protein assay; details: UACC-257, 48 h
OVCAR-4 = test: Growth inhibition of human OVCAR4 cells after 48 hrs by SRB protein assay; details: OVCAR-4, 48 h
Hs-578T = test: Growth inhibition of human HS578T cells after 48 hrs by SRB protein assay
RXF 393 = test: Growth inhibition of human RXF393 cells after 48 hrs by SRB protein assay; details: RXF 393, 48 h
SK-OV-3 = test: Growth inhibition of human SK-OV-3 cells after 48 hrs by SRB protein assay; details: SK-OV-3, 48 h
[2] = Growth inhibition of human MALME 3M cells after 48 hrs by SRB protein assay
SW-620 = test: Growth inhibition of human SW620 cells after 48 hrs by SRB protein assay; details: SW-620, 48 h
SK-MEL-2 = test: Growth inhibition of human SK-MEL-2 cells after 48 hrs by SRB protein assay; details: SK-MEL-2, 48 h
TK-10 = test: Growth inhibition of human TK10 cells after 48 hrs by SRB protein assay; details: TK-10, 48 h
CCRF-CEM = test: Growth inhibition of human CCRF-CEM cells after 48 hrs by SRB protein assay
HOP-62 = test: Growth inhibition of human HOP62 cells after 48 hrs by SRB protein assay; details: HOP-62, 48 h
OVCAR-8 = test: Growth inhibition of human OVCAR8 cells after 48 hrs by SRB protein assay; details: OVCAR-8, 48 h
SF-295 = test: Growth inhibition of human SF295 cells after 48 hrs by SRB protein assay; details: SF-295, 48 h
SF-268 = test: Anticancer activity against human SF268 cells assessed as growth of cells at 100 uM relative to untreated cells
PC-3 = test: Growth inhibition of human PC3 cells after 48 hrs by SRB protein assay; details: PC-3, 48 h
NCI-H460 [3] = test: Anticancer activity against human NCI-H460 cells assessed as growth of cells at 100 uM relative to untreated cells
SN12C = test: Growth inhibition of human SN12C cells after 48 hrs by SRB protein assay
UO-31 = test: Growth inhibition of human UO31 cells after 48 hrs by SRB protein assay; details: UO-31, 48 h
MCF7 = test: Growth inhibition of human MCF7 cells after 48 hrs by SRB protein assay; details: MCF7, 48 h
A549 = test: Growth inhibition of human A549/ATCC cells after 48 hrs by SRB protein assay; details: A549, 48 h

Structure (SMILES): O=c1/c(=C/c2ccc(Cl)cc2)sc2ncnn12
- GI50 (ACHN): 14.5 µM
- TGI (ACHN; read-out: Log TGI (converted)): 38.9 µM
- GI50 (SK-MEL-28): 16.6 µM
- TGI (SK-MEL-28; read-out: Log TGI (converted)): 35.5 µM
- GI50 (HCC 2998): 18.2 µM
- TGI (HCC 2998; read-out: Log TGI (converted)): 32.4 µM
- GI50 (M14): 15.1 µM
- TGI (M14; read-out: Log TGI (converted)): 35.5 µM
- GI50 (NCI-H522): 5.37 µM
- TGI (NCI-H522; read-out: Log TGI (converted)): 18.6 µM
- GI50 (NCI-H460 [1]): 17.4 µM
- TGI (NCI-H460 [1]; read-out: Log TGI (converted)): 44.7 µM
- GI50 (UACC-62): 14.5 µM
- TGI (UACC-62; read-out: Log TGI (converted)): 29.5 µM
- GI50 (HCT-116): 10.7 µM
- TGI (HCT-116; read-out: Log TGI (converted)): 25.7 µM
- GI50 (HCT-15): 12 µM
- TGI (HCT-15; read-out: Log TGI (converted)): 34.7 µM
- GI50 (NCI-H226): 20 µM
- TGI (NCI-H226; read-out: Log TGI (converted)): 55 µM
- GI50 (SK-MEL-5): 10.7 µM
- TGI (SK-MEL-5; read-out: Log TGI (converted)): 23.4 µM
- GI50 (LOX IMVI): 10.7 µM
- TGI (LOX IMVI; read-out: Log TGI (converted)): 25.1 µM
- GI50 (786-0): 13.5 µM
- TGI (786-0; read-out: Log TGI (converted)): 28.8 µM
- GI50 (IGROV-1): 10 µM
- TGI (IGROV-1; read-out: Log TGI (converted)): 24.5 µM
- GI50 (RPMI-8226): 2.95 µM
- TGI (RPMI-8226; read-out: Log TGI (converted)): 17.4 µM
- GI50 (OVCAR-5): 20 µM
- TGI (OVCAR-5; read-out: Log TGI (converted)): 34.7 µM
- GI50 (MOLT-4): 1.62 µM
- TGI (MOLT-4; read-out: Log TGI (converted)): 8.71 µM
- GI50 (NCI/ADR-RES): 26.3 µM
- TGI (NCI/ADR-RES; read-out: Log TGI (converted)): 89.1 µM
- GI50 (UACC-257): 13.5 µM
- TGI (UACC-257; read-out: Log TGI (converted)): 30.2 µM
- GI50 (OVCAR-4): 17.4 µM
- TGI (OVCAR-4; read-out: Log TGI (converted)): 63.1 µM
- GI50 (Hs-578T): 14.1 µM
- TGI (Hs-578T; read-out: Log TGI (converted)): 37.2 µM
- GI50 (RXF 393): 5.25 µM
- TGI (RXF 393; read-out: Log TGI (converted)): 18.2 µM
- GI50 (SK-OV-3): 29.5 µM
- TGI (SK-OV-3; read-out: Log TGI (converted)): 55 µM
- GI50 [2]: 11.2 µM
- TGI ([2]; read-out: Log TGI (converted)): 26.9 µM
- GI50 (SW-620): 14.8 µM
- TGI (SW-620; read-out: Log TGI (converted)): 30.9 µM
- GI50 (SK-MEL-2): 12.6 µM
- TGI (SK-MEL-2; read-out: Log TGI (converted)): 28.2 µM
- GI50 (TK-10): 16.6 µM
- TGI (TK-10; read-out: Log TGI (converted)): 31.6 µM
- GI50 (CCRF-CEM): 0.355 µM
- TGI (CCRF-CEM; read-out: Log TGI (converted)): 20 µM
- GI50 (HOP-62): 15.8 µM
- TGI (HOP-62; read-out: Log TGI (converted)): 35.5 µM
- GI50 (OVCAR-8): 12.6 µM
- TGI (OVCAR-8; read-out: Log TGI (converted)): 36.3 µM
- GI50 (SF-295): 17.8 µM
- TGI (SF-295; read-out: Log TGI (converted)): 35.5 µM
- Activity (SF-268): 11%
- GI50 (PC-3): 11.7 µM
- TGI (PC-3; read-out: Log TGI (converted)): 28.8 µM
- Activity (NCI-H460 [3]): 3%
- GI50 (SN12C): 15.5 µM
- TGI (SN12C; read-out: Log TGI (converted)): 49 µM
- GI50 (UO-31): 12.3 µM
- TGI (UO-31; read-out: Log TGI (converted)): 33.1 µM
- GI50 (MCF7): 6.31 µM
- TGI (MCF7; read-out: Log TGI (converted)): 30.9 µM
- GI50 (A549): 21.4 µM
- TGI (A549; read-out: Log TGI (converted)): 83.2 µM
